The values below come from patent publication US20100105727A1, “NOVEL BENZAMIDE DERIVATIVES AND PROCESS FOR THE PREPARTION THEREOF” (DONG-A-PHARM. CO., LTD., priority 2007, published 2010).

The structures appear in SMILES notation. Where two headings read alike, the source gives them in different places.

In one data set the target is T1, human 5-HT4 receptor (Homo sapiens, UniProt Q13639).
T1 construct: expressed in transfected cells; host or cells: COS-7
In words: Binding affinity of compounds for 5-HT4 receptor (radioligand displacement, membrane lysates of COS-7 cells). The settings on record: inhibition of specific binding of 0.595 nM [H3]-AGR113808; COS-7 cell membrane lysates expressing human 5-HT4 receptor. As to the method:
For this purpose, COS-7 cells expressing the human 5-HT4 receptor were constructed and lysed to obtain cell membrane lysates which were then used in binding assay experiments. For binding assay, the membrane lysates were mixed and incubated with different concentrations of test materials and [H3]-AGR113808. […] After incubation was completed, the reaction products were collected in a GF/B glass fiber filter using a Packard cell harvester, and the bound radioactivity was then determined using a liquid cell scintillation counter (Packard TopCount NXT™, Perkin Elmer). Specific binding of the radioligand to the 5-HT4 receptor was calculated by subtracting the non-specific binding of the radioligand from the total radioligand binding. IC50 was calculated from % inhibition of specific binding of the radioligand to the 5-HT4 receptor, with respect to varying concentrations of the test materials.

The subject of another data set is male ICR mice. As to the method:
In order to examine acute toxicity of compounds according to the present invention, the following experiment was carried out.
Over the entire experimental period of 2 weeks, the minimum lethal dose (MLD, mg/kg) of the compound was investigated by the observation of the mortality, body weight and clinical symptoms of animals.

For a further data set, the target named is T2, hERG potassium channel (Homo sapiens, UniProt Q12809).
T2 construct: host or cells: HEK-293
T2 sequence (Q12809 whole entry): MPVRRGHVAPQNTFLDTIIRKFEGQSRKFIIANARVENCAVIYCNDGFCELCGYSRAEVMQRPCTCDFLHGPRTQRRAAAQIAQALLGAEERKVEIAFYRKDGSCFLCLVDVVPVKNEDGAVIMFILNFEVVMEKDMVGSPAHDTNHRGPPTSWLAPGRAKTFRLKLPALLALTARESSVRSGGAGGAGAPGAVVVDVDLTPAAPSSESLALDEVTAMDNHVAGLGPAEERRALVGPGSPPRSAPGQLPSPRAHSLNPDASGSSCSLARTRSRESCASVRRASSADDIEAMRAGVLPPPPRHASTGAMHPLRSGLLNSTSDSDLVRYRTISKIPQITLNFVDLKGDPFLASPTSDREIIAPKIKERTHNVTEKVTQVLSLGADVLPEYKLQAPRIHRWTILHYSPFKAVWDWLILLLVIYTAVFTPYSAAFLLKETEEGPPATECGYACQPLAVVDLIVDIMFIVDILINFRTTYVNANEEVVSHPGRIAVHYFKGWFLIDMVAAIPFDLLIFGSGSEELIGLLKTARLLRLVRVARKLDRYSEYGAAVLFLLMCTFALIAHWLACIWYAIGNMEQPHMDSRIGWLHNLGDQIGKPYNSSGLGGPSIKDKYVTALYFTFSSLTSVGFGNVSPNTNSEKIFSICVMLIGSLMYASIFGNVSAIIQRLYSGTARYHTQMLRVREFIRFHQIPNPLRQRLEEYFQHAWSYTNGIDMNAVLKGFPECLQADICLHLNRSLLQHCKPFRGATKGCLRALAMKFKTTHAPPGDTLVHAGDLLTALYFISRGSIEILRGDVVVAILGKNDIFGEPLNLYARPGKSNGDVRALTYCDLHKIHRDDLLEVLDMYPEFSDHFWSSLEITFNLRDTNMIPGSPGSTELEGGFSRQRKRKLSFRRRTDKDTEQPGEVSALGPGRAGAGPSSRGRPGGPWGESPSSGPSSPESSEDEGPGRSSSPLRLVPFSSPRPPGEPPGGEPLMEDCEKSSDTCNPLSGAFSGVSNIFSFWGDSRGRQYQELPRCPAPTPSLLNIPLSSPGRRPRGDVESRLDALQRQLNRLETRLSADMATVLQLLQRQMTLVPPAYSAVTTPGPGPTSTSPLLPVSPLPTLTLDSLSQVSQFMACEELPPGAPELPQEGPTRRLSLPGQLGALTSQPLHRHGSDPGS
In words: Binding affinity of compounds for hERG receptor ([H3]-Astemizole displacement, HEK-293 membrane lysates). The conditions noted are these: % inhibition of specific binding of 1.5 nM [H3]-Astemizole at 10 μM test material. How it is done:
Membrane lysates were obtained from mammalian HEK-293 cells expressing the hERG potassium channel and used in binding assay experiments. […] After incubation was completed, the radioactivity bound to the hERG K+ channel was counted. The affinity of each test material for the hERG K+ channel was calculated from % inhibition of specific binding of the radioligand to the hERG K+ channel, resulting from the action of the test material.
Background: Block of hERG is tested as a sign of cardiac risk.

The mark [1] stands for this setting: oral, single dose of 1 g/10 mL/kg in 1% hydroxypropylmethylcellulose, 5-week old male ICR mice, observed 2 weeks.
The mark [2] stands for this setting: male, ICR, mouse, in vivo, po, 2 weeks.

T1 sequence (Q13639 whole entry): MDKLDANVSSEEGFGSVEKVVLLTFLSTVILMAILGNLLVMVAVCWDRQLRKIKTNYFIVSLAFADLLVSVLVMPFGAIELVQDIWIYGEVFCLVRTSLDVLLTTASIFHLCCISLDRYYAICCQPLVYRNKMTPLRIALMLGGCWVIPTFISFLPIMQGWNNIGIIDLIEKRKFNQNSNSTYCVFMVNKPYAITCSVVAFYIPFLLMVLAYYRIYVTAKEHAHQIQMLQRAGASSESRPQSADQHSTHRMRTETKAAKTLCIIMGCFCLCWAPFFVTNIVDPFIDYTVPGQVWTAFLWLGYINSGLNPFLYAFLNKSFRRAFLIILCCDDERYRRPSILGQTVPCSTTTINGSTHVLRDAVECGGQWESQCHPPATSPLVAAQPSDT

The IC50 is the midpoint of a concentration-inhibition curve. `CCOC(=O)N1CCC(CN2CC[C@H](NC(=O)c3cc(Cl)c(N)cc3OC)[C@H](OC)C2)CC1` (relative stereo) [Compound 1, ethyl 4-[(cis-4-(4-amino-5-chloro-2-methoxybenzamido)-3-methoxypiperidin-1-yl)methyl]piperidine-1-carboxylate] displayed an IC50 on human 5-HT4 receptor of 230 nM. For the same compound, the “Minimum lethal dose (MLD, mg/kg)” value in the data set on male ICR mice (setting [1]) is listed as more than 1000 mg/kg.

As for `CCCOC(=O)N1CCC(CN2CC[C@H](NC(=O)c3cc(Cl)c(N)cc3OC)[C@H](OC)C2)CC1` (relative stereo) [Compound 6, propyl 4-[(cis-4-(4-amino-5-chloro-2-methoxybenzamido)-3-methoxypiperidin-1-yl)methyl]piperidine-1-carboxylate], at human 5-HT4 receptor, the IC50 is 94 nM. Moreover, the “Minimum lethal dose (MLD, mg/kg)” value in the data set on male ICR mice (setting [1]) was more than 1000 mg/kg.

As for `COc1cc(N)c(Cl)cc1C(=O)N[C@H]1CCN(CC2CCN(C(=O)C(C)C)CC2)C[C@H]1OC` (relative stereo) [Compound 14, cis-4-amino-5-chloro-N-[1-((1-isobutyrylpiperidin-4-yl)methyl)-3-methoxypiperidin-4-yl]-2-methoxybenzamide], the IC50 at human 5-HT4 receptor stood at 141 nM. Further, the “Minimum lethal dose (MLD, mg/kg)” value in the data set on male ICR mice (setting [2]) is reported as more than 1000 mg/kg.

`CCC(=O)N1CCC(CN2CC[C@H](NC(=O)c3cc(Cl)c(N)cc3OC)[C@H](OC)C2)CC1` (relative stereo) [Compound 17, cis-4-amino-5-chloro-N-[1-((1-propionylpiperidin-4-yl)methyl)-3-methoxypiperidin-4-yl]-2-methoxybenzamide]: in the data set on male ICR mice (setting [2]), the “Minimum lethal dose (MLD, mg/kg)” value is more than 1000 mg/kg.

Take `COc1cc(N)c(Cl)cc1C(=O)N[C@H]1CCN(CC2CCN(C(=O)C(C)(C)C)CC2)C[C@H]1OC` (relative stereo) [Compound 29, cis-4-amino-5-chloro-N-[1-((1-pivaloylpiperidin-4-yl)methyl)-3-methoxypiperidin-4-yl]-2-methoxybenzamide]: the IC50 at human 5-HT4 receptor worked out at 34 nM. Also, the “Minimum lethal dose (MLD, mg/kg)” value with male ICR mice (setting [2]) is given as more than 1000 mg/kg.

At human 5-HT4 receptor, `COc1cc(N)c(Cl)cc1C(=O)N[C@H]1CCN(CC2CCN(C(=S)CC(C)C)CC2)C[C@H]1OC` (relative stereo) [Compound 36, cis-4-amino-5-chloro-N-[1-((1-(3-methylbutanethioyl)piperidin-4-yl)methyl)-3-methoxypiperidin-4-yl]-2-methoxybenzamide] had an IC50 of 175 nM.

On to `COc1cc(N)c(Cl)cc1C(=O)N[C@H]1CCN(CC2CCN(C(=S)CCC(C)C)CC2)C[C@H]1OC` (relative stereo) [Compound 37, cis-4-amino-5-chloro-N-[1-((1-(4-methylpentanethioyl)piperidin-4-yl)methyl)-3-methoxypiperidin-4-yl]-2-methoxybenzamide], for which, on human 5-HT4 receptor, the IC50 came to 175 nM.

Compound `COc1cc(N)c(Cl)cc1C(=O)N[C@H]1CCN(CC2CCN(C(=S)C(C)(C)C)CC2)C[C@H]1OC` (relative stereo) [Compound 38, cis-4-amino-5-chloro-N-[1-((1-(2,2-dimethylpropanethioyl)piperidin-4-yl)methyl)-3-methoxypiperidin-4-yl]-2-methoxybenzamide] returned an IC50 on human 5-HT4 receptor of 217 nM.

The compound `CCSC(=O)N1CCC(CN2CC[C@H](NC(=O)c3cc(Cl)c(N)cc3OC)[C@H](OC)C2)CC1` (relative stereo) [Compound 39, S-ethyl 4-[(cis-4-(4-amino-5-chloro-2-methoxybenzamido)-3-methoxypiperidin-1-yl)methyl]piperidine-1-carbothioate] returned an IC50 at human 5-HT4 receptor of 47 nM.

The compound `COc1cc(N)c(Cl)cc1C(=O)N[C@H]1CCN(CC2CCN(S(=O)(=O)C(C)C)CC2)C[C@H]1OC` (relative stereo) [Compound 42, cis-4-amino-5-chloro-N-[1-((1-(isopropylsulfonyl)piperidin-4-yl)methyl)-3-methoxypiperidin-4-yl]-2-methoxybenzamide] registered an IC50 at human 5-HT4 receptor of 47 nM.

In turn, `COc1cc(N)c(Cl)cc1C(=O)N[C@H]1CCN(CC2CCN(S(C)(=O)=O)CC2)C[C@H]1OC` (relative stereo) [Compound 43, cis-4-amino-5-chloro-N-[1-((1-(methylsulfonyl)piperidin-4-yl)methyl)-3-methoxypiperidin-4-yl]-2-methoxybenzamide] had a half-inhibitory concentration (IC50) at human 5-HT4 receptor of 167 nM.

Turning to `COc1cc(N)c(Cl)cc1C(=O)N[C@H]1CCN(CCc2noc(C)n2)C[C@H]1OC` (relative stereo) [Compound 54, cis-4-amino-5-chloro-N-[1-(2-(5-methyl-1,2,4-oxadiazol-3-yl)ethyl)-3-methoxypiperidin-4-yl]-2-methoxybenzamide], in the data set on male ICR mice (setting [2]), the “Minimum lethal dose (MLD, mg/kg)” value is given as more than 1000 mg/kg.

`COc1cc(N)c(Cl)cc1C(=O)N[C@H]1CCN(CCC(=O)Nc2ccc3ncccc3c2)C[C@H]1OC` (relative stereo) [Compound 57, cis-4-amino-5-chloro-N-[1-(3-oxo-3-(quinolin-6-ylamino)propyl)-3-methoxypiperidin-4-yl]-2-methoxybenzamide]: the IC50 at human 5-HT4 receptor amounted to 53 nM.

`COc1cc(N)c(Cl)cc1C(=O)N[C@H]1CCN(CCCCCC(=O)Nc2cccc3ncccc23)C[C@H]1OC` (relative stereo) [Compound 58, cis-4-amino-5-chloro-N-[1-(6-oxo-6-(quinolin-5-ylamino)hexyl)-3-methoxypiperidin-4-yl]-2-methoxybenzamide] showed an IC50 on human 5-HT4 receptor of 77 nM.

Take `COc1cc(N)c(Cl)cc1C(=O)N[C@H]1CCN(CCC(=O)Nc2cc(C)cc(C)n2)C[C@H]1OC` (relative stereo) [Compound 59, cis-4-amino-5-chloro-N-[1-(3-oxo-3-(4,6-dimethylpyridin-2-ylamino)propyl)-3-methoxypiperidin-4-yl]-2-methoxybenzamide]: the IC50 at human 5-HT4 receptor came to 140 nM. In the data set with male ICR mice (setting [2]), the “Minimum lethal dose (MLD, mg/kg)” value is listed as more than 1000 mg/kg.

With `COc1cc(N)c(Cl)cc1C(=O)N[C@H]1CCN(CCCCCC(=O)Nc2cc(C)cc(C)n2)C[C@H]1OC` (relative stereo) [Compound 60, cis-4-amino-5-chloro-N-[1-(6-oxo-6-(4,6-dimethylpyridin-2-ylamino)hexyl)-3-methoxypiperidin-4-yl]-2-methoxybenzamide], at human 5-HT4 receptor, the IC50 was 85 nM.

Consider `COc1cc(N)c(Cl)cc1C(=O)N[C@H]1CCN(CCC(=O)Nc2ccc3[nH]ccc3c2)C[C@H]1OC` (relative stereo) [Compound 61, cis-4-amino-5-chloro-N-[1-(3-oxo-3-(1H-indol-5-ylamino)propyl)-3-methoxypiperidin-4-yl]-2-methoxybenzamide], for which the concentration for half-maximal inhibition (IC50) at human 5-HT4 receptor turned out to be 48 nM.

For `COc1cc(N)c(Cl)cc1C(=O)N[C@H]1CCN(CCCCCC(=O)Nc2ccc3[nH]ccc3c2)C[C@H]1OC` (relative stereo) [Compound 62, cis-4-amino-5-chloro-N-[1-(6-oxo-6-(1H-indol-5-ylamino)hexyl)-3-methoxypiperidin-4-yl]-2-methoxybenzamide], the IC50 at human 5-HT4 receptor is 44 nM.

In the case of `COc1cc(N)c(Cl)cc1C(=O)N[C@H]1CCN(CC2CCN(C(=O)NC(C)C)CC2)C[C@H]1OC` (relative stereo) [Compound 63, 4-[cis-4-(4-amino-5-chloro-2-methoxybenzoylamino)-3-methoxy-piperidin-1-ylmethyl]-piperidine-1-carboxylic acid isopropylamide], at human 5-HT4 receptor, the IC50 turned out to be 25 nM. Besides, the “Minimum lethal dose (MLD, mg/kg)” value in the data set with male ICR mice (setting [1]) is on record as more than 1000 mg/kg.

In turn, `COc1cc(N)c(Cl)cc1C(=O)N[C@H]1CCN(CC2CCN(C(=O)N(C)C)CC2)C[C@H]1OC` (relative stereo) [Compound 64, 4-[cis-4-(4-amino-5-chloro-2-methoxybenzoylamino)-3-methoxy-piperidin-1-ylmethyl]-piperidine-1-carboxylic acid dimethylamide] had an IC50 at human 5-HT4 receptor of 29 nM. Also, the “Minimum lethal dose (MLD, mg/kg)” value in the data set with male ICR mice (setting [2]) is reported as more than 1000 mg/kg.

For `COc1cc(N)c(Cl)cc1C(=O)NC1CCN(CCCOc2ccc(F)cc2)CC1OC` (centres unmarked) [Cisapride, cisapride, reference compound], the “Minimum lethal dose (MLD, mg/kg)” value in the data set with male ICR mice (setting [2]) is more than 1000 mg/kg.

As for `CCOC(=O)N1CCC(CN2CC[C@@H](NC(=O)c3cc(Cl)c(N)cc3OC)[C@@H](OC)C2)CC1` [Compound 2, ethyl 4-[((3S,4R)-4-(4-amino-5-chloro-2-methoxybenzamido)-3-methoxypiperidin-1-yl)methyl]piperidine-1-carboxylate], the IC50 on human 5-HT4 receptor amounted to 83 nM. Also, in the data set with male ICR mice (setting [1]), the “Minimum lethal dose (MLD, mg/kg)” value is more than 1000 mg/kg.

As for `COc1cc(N)c(Cl)cc1C(=O)N[C@@H]1CCN(CC2CCN(S(C)(=O)=O)CC2)C[C@@H]1OC` [Compound 44, (3S,4R)-4-amino-5-chloro-N-[1-((1-(methylsulfonyl)piperidin-4-yl)methyl)-3-methoxypiperidin-4-yl]-2-methoxybenzamide], the IC50 on human 5-HT4 receptor amounted to 116 nM.

As for `COc1cc(N)c(Cl)cc1C(=O)N[C@@H]1CCN(CCc2noc(C)n2)C[C@@H]1OC` [Compound 55, (3S,4R)-4-amino-5-chloro-N-[1-(2-(5-methyl-1,2,4-oxadiazol-3-yl)ethyl)-3-methoxypiperidin-4-yl]-2-methoxybenzamide], the “hERG binding affinity (% at 10 μM)” value on hERG potassium channel is 31%.
